Source: patent publication US20140357706A1, “Stearate Compounds” (THE UAB RESEARCH FOUNDATION, priority 2011, published 2014)

Legend:
[1] = system: p21^CIP1/WAF1, p27^KIP1, pCdk2; test: Immunoblot of p21CIP1/WAF1, p27KIP1 and phosphorylated Cdk2 in Hs578T cells; format: cell-based, human
Description: (§1) The concentration of stearate used to treat the Hs578T cells was 50 μM. When EGF was used, the concentration was 1 nM EGF. Before the treatment with stearate or EGF, cells were first starved for 24-48 hours. Stearate was loaded onto fatty acid-free bovine serum albumin (BSA) according to the method reported by Spector et al. (13); briefly, stearate (0.5 g) was dissolved in chloroform (100 ml) and mixed well with 10 g diatomaceous earth in a 1 liter flask. The mixture was stirred and dried under nitrogen until powder. BSA is a physiological carrier of fatty acids and was used to avoid the introduction of organic solvents to solutions coming into contact with cells. Fatty acid-free BSA (1 g) was dissolved in 100 ml with Dulbecco's modified Eagle's medium without phenol red and mixed with 3 g of the stearate/diatomaceous earth mixture with stirring for 45 min. The stearate/BSA solution was filtered through a 0.45 μm filter, and adjusted to pH 7.4. The concentration of stearate in the solution was detected with the NEFA C Kit from Wako Chemicals GmbH (Neuss, Germany). All experimental data on Hs578T cells were controlled using fatty acid-free BSA control solutions that were put through the same preparatory procedure described for the stearate/BSA solution except for the fact that no fatty acid was added.
Cells were treated as described above, and lysed with lysis buffer. The supernatants of the lysates or the immunoprecipitates were loaded with Laemmli sample buffer on 10% sodium dodecyl sulfate-polyacrylamide gel electrophoresis gels after boiling at 100° C. for 5 min. Proteins were then transferred to a polyvinylidene difluoride membrane. The membranes were blocked overnight at 4° C. with blocking buffer containing 5% non-fat dried milk powder in Tris-buffered saline-T (25 mM Tris, 140 mM NaCl, 2.7 mM KCl, 0.05% Tween-20, pH 8.0), incubated with primary antibody in blocking buffer at room temperature for 1 hour and incubated with antirabbit or antimouse antibodies labeled with horseradish peroxidase (1:5000) in blocking buffer under the same conditions, and then washed three times for 10 min in Tris-buffered saline-T. The polyvinylidene difluoride membranes were washed and developed using enhanced chemiluminescence reagents.

ERK = test: Immunoblot of phosphorylated ERK in Hs578T cells; format: cell-based, human; details: PD98059 added to Hs578T cells
Description: as §1
Cells were treated as described above, and lysed with lysis buffer. […]

[2] = system: visceral adipocytes from ApoE knockout mice; test: Expression of cIAP2, Bcl-2 and Bax in visceral adipocyte cultures; format: cell-based; details: 50 μM fatty acid; vs no additional fatty acid
Description: It was hypothesized that stearate induces apoptosis in visceral adipocytes by at least one of the following mechanisms: inhibition of cIAP2, activation of Bcl-2, and activation of BAX. […] Six cultures were exposed to each fatty acid or no fatty acid. The expression of cIAP2, Bcl-2, and Bax was measured in each culture. […] By decreasing levels of the cIAP2 and/or Bcl-2 polypeptides and increasing expression of the Bax polypeptide, stearate administration may lead to an increase in cellular apoptotic activity (such as but not limited to the visceral fat tissues). Without wishing to be bound by any given hypothetical model, it is proposed that this reduction in cIAP2 expression and this increase in Bax expression (independently or in combination) is responsible for the relative decrease in visceral fat tissue that is observed when animals are given a diet that is high in stearate.

[3] = system: differentiated 3T3L1 adipocytes; test: Necrosis and apoptosis of differentiated 3T3L1 adipocytes (trypan blue, LDH, flow cytometry); format: cell-based, mouse; details: 50 μM
Description: 3T3L1 mouse fibroblast cells (ATCC, CL-173™) were maintained according to the manufacture's protocol, in Dulbecco's modified eagle's medium (DMEM) containing 10% Fetal Bovine Serum and antibiotics (M1 medium). Adipocyte differentiation was performed according to standard procedures (42). Briefly, the 3T3L1 fibroblasts were seeded at 30% confluence and allowed to grow to near 100% confluence. On the day after reaching maximum confluence, conversion was induced by replacing the M1 medium with M1 medium containing insulin (5 μg/ml), dexamethasone (0.25 μM), and 3-isobutyl-1-methyl-xanthine (0.5 mM). After 2 days, the cells were changed to M1 medium with insulin (5 μg/ml) for an additional 2 days. Thereafter, the cells were maintained in M1 medium without additives for 2 days.
(§2) 50 μM of stearate, oleate or linoleate was used to treat 3T3L1 cells as this concentration is centered within the normal range for non-esterified stearate in the plasma of humans. Stearate, oleate, or linoleate was loaded onto fatty acid free BSA according to the method reported by Spector and Hoak (Spector and Hoak, 1969). Briefly, stearate (0.5 g) was dissolved in chloroform (100 mL) and mixed well with 10 g diatomaceous earth in a 1 liter flask. The mixture was stirred and dried under nitrogen until powder. Fatty acid free BSA (1 g) was dissolved in 100 mL with DMEM without phenol red and mixed with 3 g of the stearate/diatomaceous earth mixture and stirred for 30 minutes. The stearate/BSA solution was filtered through a 0.45 μm filter, and adjusted to pH 7.4. The concentration of stearate in the solution was detected by use of a NEFA C kit. Oleic and linoleate were loaded in the same way. […] Before the treatment with fatty acid, 3T3L1 preadipocytes were grown to 100%, and were starved in 2% FBS medium for 24 hours.
(§3) After treatment, 3T3L1 cells were harvested, washed with cold PBS, and then resuspended in 100 μl annexin-binding buffer (50 mM HEPES, 700 mM NaCl, 12.5 mM CaCl2, pH 7.4). Cell density was determined, and the cells were diluted to 10^6 cells. Then 5μL of Alex Fluo 488 annexin V and 1 μL propidium iodide (PI) were added. Cells were gently oscillated and incubated for 15 min at room temperature. After adding 400 μL of binding buffer to each tube, cells were kept on ice and analyzed by flow cytometry within 1 hour. Cells that stained positive for Alex Fluo 488 annexin V and negative for PI were considered to be apoptotic. Cells that stained positive for both Alex Fluo 488 annexin V and PI were considered either in the end stage of apoptosis, or necrosis. Cells that stained negative for both Alex Fluo 488 annexin V and PI were considered alive and not undergoing measurable apoptosis. A BD LSR II flow cytometer from Becton Dickinson was used in all flow experiments and the data were analyzed with BD FACSDiva™ software V.6.1.3.
(§4) Lactate dehydrogenase (LDH) release was measured using a cytotoxicity detection kit, according to the manufacture's protocol. After 3T3L1 cells were treated, 1 ml of cell culture medium was removed and centrifuged. The supernatant was retained for assaying. For determinations, 100 μl of LDH assay reagent was added to 100 μl of supernatant and incubated for 30 min at room temperature in the dark. Absorbance was measured at 490 nm. Background release from culture medium alone was subtracted before reporting. Maximum release was measured after adding 2% Triton X-100 to untreated cells.
(§5) After treatment, 3T3L1 cells were harvested and stained with 0.4% trypan blue solution. Cells in the four corners of the grid were counted under a conventional bright field binocular microscope.

3T3L1 preadipocytes = test: Cell death and apoptosis of 3T3L1 preadipocytes (trypan blue, LDH, flow cytometry); format: cell-based, mouse; details: 50 μM, vs control; for Percentage of dead cells (trypan blue): 48 hour treatment; for Dead cells (flow cytometry): 48 hours; for Cytotoxicity (lactate dehydrogenase): after 24 hours
Description: as §2, §3, §4, §5

[4] = PD98059 in stearate-treated cells

SMILES | Stearate-induced upregulation of p21^CIP1/WAF1 ([1]; PD98059 added following stearate and EGF treatment) | Stearate-induced decrease in pCdk2 [1, 4] | Stearate-induced increases in p27^KIP1 [1, 4] | ERK phosphorylation induced by stearate and EGF (ERK) | Expression of Bax [2] | Expression of cIAP2 [2] | Cytotoxicity (lactate dehydrogenase in medium) [3] | Percentage of apoptotic cells (flow cytometry) [3] | Percentage of dead cells (flow cytometry) [3] | Percentage of dead cells (trypan blue) [3] | Percentage of dead cells (trypan blue) (3T3L1 preadipocytes) | Dead cells (flow cytometry) (3T3L1 preadipocytes) | Cytotoxicity (lactate dehydrogenase) (3T3L1 preadipocytes) | Apoptotic cells (flow cytometry) (3T3L1 preadipocytes)
COc1cccc(-c2cc(=O)c3ccccc3o2)c1N [PD98059, 2′-amino-3′-methoxyflavone, reference compound] | reverses | only partially reversed | did not reverse | blocked |  |  |  |  |  |  |  |  |  | 
CCCCC/C=C\C/C=C\CCCCCCCC(=O)O [linoleate, linoleic acid] |  |  |  |  | increased the expression of Bax to a lesser extent | no statistically significant effect | no significant changes | no significant changes | no significant changes | no significant changes | no significant changes | no significant effects | did not change significantly | No significant changes
CCCCCCCC/C=C\CCCCCCCC(=O)O [oleate, oleic acid] |  |  |  |  |  |  | no significant changes | no significant changes | no significant changes | no significant changes | no significant changes | significantly decreased | significantly decreased | decreased
